Data on five compounds can be found in US20020177172A1, “RESTORATION OF PLATELET AGGREGATION BY ANTIBODY ADMINISTRATION AFTER GPIIB/IIIA ANTAGONIST TREATMENT” (priority 1996, published 2002).

In data set [1] the test system is human platelet rich plasma. As to the kind of experiment: Aggregation of human platelet rich plasma. Type of data set: cell-based. The settings on record: read-out: inhibition of aggregation by the compound itself; for inhibition at 0.05 µM: 5×10^−8 M. Here is the method: Human platelet rich plasma (“PRP”) was prepared by centrifugation of citrated whole blood at 970×g for 3.5 minutes at room temperature. PRP was carefully removed from red cells and placed in 50 mL conical tubes. Platelet aggregation was measured as an increase in light transmission in an aggregometer (Bio/Data model PAP-4, Horsham, Pa.) using ADP (20 μM) or collagen (4 μg/mL) as the agonist.
Antibodies produced according to Example 4 were assayed in aggregation for their ability to neutralize (at 60 nM) the GPIIb/IIIa antagonists compound B (5×10^−8 M), compound D (1×10^−7 M), and Merck compound MK383 (5×10^−8 M), as a means of screening which ones recognized the antagonists in a useful manner. The levels of antiplatelet compounds used provided at least 50 percent inhibition of aggregation by themselves. Results are illustrated in FIG. 3.
Collagen-induced platelet aggregation was measured in the presence of 50 nM compound B or 100 nM compound D over 3 minutes in the presence or absence of Mab 9F7 inclusion at 60 nM.

Data set [2] relates to heparinized human whole blood. As to the kind of experiment: Activated clotting time (ACT) in heparinized human whole blood, Hemochron-8000. The format is cell-based. The settings on record: 1.4 Units/mL heparin; FIG. 1. From the text:
This process can be used to calculate a standardized concentration curve for various known concentrations of anti-platelet compounds. The process can also be used to measure activated clotting times for use in calculating the ACT number for the processes of the invention.
A. Blood was drawn from a human volunteer into a syringe containing heparin. The heparin to whole blood ratio was 1:10 such that the final concentration of heparin in the syringe was 1.4 Units/mL.
B. The Hemochron™-8000 was set up to run ACT using the P-215 tubes from the same manufacturer (International Technidyne).
A. A 1 mL sample of the above heparinized blood was admixed and maintained (incubated) with 2.5-10 μl of antagonist compound or saline for 5 minutes at room temperature.
B. The Hemochron™ was started as 400 μl of the test sample was pipetted into the P-215 tube. The tube contents were gently mixed, placed into the Hemochron™ and turned one revolution until the light on the instrument came on.
C. Step B was repeated for the second channel of the instrument within 30 seconds to give an average activated clotting time. […]
The activated clotting time was first measured (in seconds) for control whole blood from each donor containing only 1.4 Units/mL of heparin. The clotting times were then measured as in Example 1 by varying concentrations of antiplatelet compounds B and D in addition to heparin for each donor. […]

In data set [3] the test system is platelet aggregation. Description: IC50 values of antiplatelet compounds (FIG. 1 legend). The format is cell-based.
Data set [4] can be described thus: Half-life of compound B in guinea pig. The format is in vivo.
Data set [5] in a line: Total and free plasma levels of compound B in dog. The settings on record: three bolus infusions of Mab 9F7, FIG. 11. Type of data set: in vivo. The method, then:
In a second study, a dog was treated with a capsule of 10 mg of compound A, BID for 4 days (15 mg on day 3) prior to antibody testing. […] Four hours after the last oral dose of compound A, a dose of pentobarbitol and the monoclional antibody (P187-9F7) was infused by a i.v. bolus injection. Each bolus contained a 5-fold molar excess over drug plasma levels (about 50 mg of Mab 9F7). A control dog was given identical amounts of antibody without compound A oral dosing. Blood samples were collected for aggregation assays at 5, 15, 30 and 60 minutes after each bolus administration of antibody, plasma levels of Mab 9F7, and total and free plasma levels of compound B.
This method involves the extraction of compound B and an internal standard (compound F, shown hereinafter) from acidified dog plasma with a C18 solid phase extraction column. Analysis is by reverse phase high performance liquid chromatography with fluorescence detection. Calibration standards were prepared in human heparinized plasma. Quality control pools were prepared in dog plasma and quantified using the human calibration curve. A linear weighted (1/concentration squared) least squares regression analysis was used to quantify samples. This method was validated with a minimum quantifiable level of 1.00 ng/mL. […]
Removed the samples to be analyzed from the freezer and thawed. […] The filtrate was then analyzed by the method given below. […]

Data set [6] is described as follows: Removal from circulation / elimination half-life. Type of data set: in vivo. The settings on record: for route of removal from circulation: in vivo; for change of elimination half-life with decreased creatinine clearance: renal impairment.
The subject of data set [7] is platelet aggregation. The settings on record: 20 mg/kg infused into femoral vein of anesthetized dogs; cited from earlier work.
The test system of data set [8] is platelet aggregation. Description: In vivo platelet aggregation, dogs (ex vivo aggregation response). The settings on record: dog, capsule of 10 mg BID for 4 days (15 mg on day 3). Here is the method:
Three beagle dogs were therefore infused with compound B while monitoring blood pressure, heart rate, PT (prothrombin time), and aPTT (activated partial thromboplastin time). […] In a second study, a dog was treated with a capsule of 10 mg of compound A, BID for 4 days (15 mg on day 3) prior to antibody testing. […] Four hours after the last oral dose of compound A, a dose of pentobarbitol and the monoclional antibody ([…]-9F7) was infused by a i.v. bolus injection. Each bolus contained a 5-fold molar excess over drug plasma levels (about 50 mg of Mab 9F7). A control dog was given identical amounts of antibody without compound A oral dosing.

Structures are written as SMILES. Values after ≈ are worked out from the molar mass of the structure shown. Where a name gives a salt, the structure may show the parent alone. Square brackets hold non-standard residues; d marks the D form. Peptide text beside a SMILES is read from it. NMeR = CN[C@@H](CCCNC(=N)N)C(=O)O; 3Amb = NCc1cccc(C(=O)O)c1; dAbu = CC[C@@H](N)C(=O)O A value given as a limit tells only on which side of the number the result lay.

In the case of `C#C[C@H](CC(=O)O)NC(=O)CCC(=O)Nc1ccc(C(=N)N)cc1` [Compound B, 3S-[[4-[[4-(aminoiminomethyl)phenyl]amino]-1,4-dioxobutyl]amino]-4-pentynoic acid], the inhibition at 0.05 µM in data set [1] was not below 50%. Also, in data set [2], the “effect of compound concentration on activated clotting time” value is “directly affect the activated clotting time”. The compound also gave an IC50 in data set [3] of 0.027 µg/mL (≈ 0.0817 µM). Further, in data set [4], the half-life result is reported as “short”. For the same compound, the “levels of total compound B (free plus antibody bound)” value in data set [5] is “increased throughout the three infusions”. Further, in data set [6], the “route of removal from circulation” value is given as “almost exclusively by the kidney” and the “change of elimination half-life with decreased creatinine clearance” value was “appreciable increases”.

For the compound `CCCCS(=O)(=O)N[C@@H](Cc1ccc(OCCCCC2CCNCC2)cc1)C(=O)O` [MK383, N-(butylsulfonyl)-0-(4-(4-piperidinyl)butyl)-L-tyrosine, monohydrochloride, reference compound], the inhibition at 0.05 µM in data set [1] was not below 50%.

`CC[C@H]1NC(=O)c2cccc(c2)CNC(=O)[C@H](CC(=O)O)NC(=O)CNC(=O)[C@H](CCCNC(=N)N)N(C)C1=O` [DMP728, cyclic [D-2-aminobutyryl-N2-methyl-L-arginyl-glycyl-L-aspartyl-3-aminomethyl-benzoic acid] methanesulfonic acid salt] (cyclo([NMeR]GD[3Amb][dAbu])): in data set [7], the “duration of inhibition of platelet aggregation” value is on record as “up to 210 minutes” and the “inhibition of platelet aggregation, measured ex vivo” value is recorded as “nearly complete inhibition”.

As to `N=C(N)c1ccc(N2CC[C@H](NC(=O)NCCC(=O)O)C2=O)cc1` [Compound D, 3-[[[[1-[4-(aminoiminomethyl)phenyl]-2-oxo-pyrrolidin-3S-yl]amino]carbonyl]amino]propanoic acid], the inhibition at 0.1 µM in data set [1] (1×10^−7 M) is not below 50%. Also, the “effect of compound concentration on activated clotting time” value in data set [2] was “directly affect the activated clotting time”. This compound had a half-maximal inhibitory concentration (IC50) in data set [3] of 0.043 µg/mL (≈ 0.129 µM). Further, in data set [6], the “route of removal from circulation” value was “almost exclusively by the kidney” and the “change of elimination half-life with decreased creatinine clearance” value is “appreciable increases”.

Consider `C#C[C@H](CC(=O)OCC)NC(=O)CCC(=O)Nc1ccc(C(=N)N)cc1.Cl` [Compound A, ethyl 3S-[[4-[[4-(aminoiminomethyl)phenyl]-amino]-1,4-dioxobutyl]amino]-4-pentynoate monohydrochloride], for which, in data set [8], the “inhibition of platelet function” value is 54%.
